# Values of other authors in patent US6277391A, “Composition and method of treating diseases and disorders of the prostate” (Samyang Corporation, priority 1998, dated 2001).
# Conditions: 300 mg PO b.i.d., oral or intravenous, at the end of regimen; 60480 min
structure (smiles),measurement,value
CC1COc2c(N3CCN(C)CC3)c(F)cc3c(=O)c(C(=O)O)cn1c23 (stereo not shown) [ofloxacin],ofloxacin concentrations in the prostate,1 to 4 µg/g
